According to US9440957B2, “Compounds and compositions for modulating EGFR Activity” (Novartis AG, priority 2012, dated 2016):
Like-named read-outs stand apart in the source and are kept apart here.

Key:
[1] = biological target: human EGFR L858R/T790M (NIH/3T3 cells) (Homo sapiens, UniProt P00533, L858R/T790M); test: EGFR target modulation in engineered NIH/3T3 cell lines (phospho-EGFR Y1068 AlphaLISA), EGFR L858R/T790M; assay type: cell-based; details: engineered NIH/3T3 cells, read-out: NIH3T3 IC50 (μM) EGFR (L858R/T790M)
human EGFR L858R/T790M (NIH/3T3 cells), sequence (P00533 25-1210 T790M/L858R): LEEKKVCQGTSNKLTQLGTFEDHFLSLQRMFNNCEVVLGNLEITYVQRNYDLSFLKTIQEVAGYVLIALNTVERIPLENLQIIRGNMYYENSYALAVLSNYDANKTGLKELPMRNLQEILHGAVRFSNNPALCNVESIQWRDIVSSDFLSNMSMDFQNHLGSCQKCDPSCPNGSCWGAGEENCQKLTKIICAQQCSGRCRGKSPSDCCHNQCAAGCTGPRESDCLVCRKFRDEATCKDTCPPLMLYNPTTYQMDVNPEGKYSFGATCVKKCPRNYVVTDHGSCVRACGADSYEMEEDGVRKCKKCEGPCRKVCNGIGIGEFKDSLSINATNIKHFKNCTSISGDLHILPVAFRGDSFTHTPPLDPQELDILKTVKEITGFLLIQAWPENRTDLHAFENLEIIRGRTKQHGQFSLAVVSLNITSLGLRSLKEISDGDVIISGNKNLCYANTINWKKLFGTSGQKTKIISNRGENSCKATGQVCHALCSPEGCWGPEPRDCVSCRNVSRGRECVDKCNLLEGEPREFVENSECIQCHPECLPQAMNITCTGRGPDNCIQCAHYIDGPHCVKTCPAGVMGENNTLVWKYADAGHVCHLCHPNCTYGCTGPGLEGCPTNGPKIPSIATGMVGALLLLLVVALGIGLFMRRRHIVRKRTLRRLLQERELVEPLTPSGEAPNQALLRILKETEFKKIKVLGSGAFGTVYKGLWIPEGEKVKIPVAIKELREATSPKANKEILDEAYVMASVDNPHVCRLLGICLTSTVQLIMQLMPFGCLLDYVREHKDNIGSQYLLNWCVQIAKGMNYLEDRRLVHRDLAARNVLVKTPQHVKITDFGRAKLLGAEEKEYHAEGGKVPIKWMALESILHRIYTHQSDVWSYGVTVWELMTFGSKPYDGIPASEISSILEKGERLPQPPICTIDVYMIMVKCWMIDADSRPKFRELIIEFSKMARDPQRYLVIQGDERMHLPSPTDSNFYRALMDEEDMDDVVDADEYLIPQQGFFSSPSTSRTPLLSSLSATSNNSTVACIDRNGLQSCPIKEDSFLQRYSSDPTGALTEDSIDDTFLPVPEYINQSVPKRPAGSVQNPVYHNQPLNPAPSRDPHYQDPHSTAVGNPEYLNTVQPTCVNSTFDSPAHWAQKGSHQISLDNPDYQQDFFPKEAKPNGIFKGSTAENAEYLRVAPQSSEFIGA
Summary of the method: (§1)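 Read-out is phospho-Y1068 AlphaLISA on cell lysates, with anti-total EGFR at 1 nM final equilibrated 1 h at room temperature. Cells were dosed 3 h with a 12-point 1:3 series starting from a 10 μM stock. Only the WT line received 50 ng/ml EGF for 5 min.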

[2] = biological target: human EGFR L858R (NIH/3T3 cells) (Homo sapiens, UniProt P00533, L858R); test: EGFR target modulation in engineered NIH/3T3 cell lines (phospho-EGFR Y1068 AlphaLISA), EGFR L858R; assay type: cell-based; details: engineered NIH/3T3 cells, read-out: NIH3T3 IC50 (μM) EGFR (L858R)
human EGFR L858R (NIH/3T3 cells), sequence (P00533 25-1210 L858R): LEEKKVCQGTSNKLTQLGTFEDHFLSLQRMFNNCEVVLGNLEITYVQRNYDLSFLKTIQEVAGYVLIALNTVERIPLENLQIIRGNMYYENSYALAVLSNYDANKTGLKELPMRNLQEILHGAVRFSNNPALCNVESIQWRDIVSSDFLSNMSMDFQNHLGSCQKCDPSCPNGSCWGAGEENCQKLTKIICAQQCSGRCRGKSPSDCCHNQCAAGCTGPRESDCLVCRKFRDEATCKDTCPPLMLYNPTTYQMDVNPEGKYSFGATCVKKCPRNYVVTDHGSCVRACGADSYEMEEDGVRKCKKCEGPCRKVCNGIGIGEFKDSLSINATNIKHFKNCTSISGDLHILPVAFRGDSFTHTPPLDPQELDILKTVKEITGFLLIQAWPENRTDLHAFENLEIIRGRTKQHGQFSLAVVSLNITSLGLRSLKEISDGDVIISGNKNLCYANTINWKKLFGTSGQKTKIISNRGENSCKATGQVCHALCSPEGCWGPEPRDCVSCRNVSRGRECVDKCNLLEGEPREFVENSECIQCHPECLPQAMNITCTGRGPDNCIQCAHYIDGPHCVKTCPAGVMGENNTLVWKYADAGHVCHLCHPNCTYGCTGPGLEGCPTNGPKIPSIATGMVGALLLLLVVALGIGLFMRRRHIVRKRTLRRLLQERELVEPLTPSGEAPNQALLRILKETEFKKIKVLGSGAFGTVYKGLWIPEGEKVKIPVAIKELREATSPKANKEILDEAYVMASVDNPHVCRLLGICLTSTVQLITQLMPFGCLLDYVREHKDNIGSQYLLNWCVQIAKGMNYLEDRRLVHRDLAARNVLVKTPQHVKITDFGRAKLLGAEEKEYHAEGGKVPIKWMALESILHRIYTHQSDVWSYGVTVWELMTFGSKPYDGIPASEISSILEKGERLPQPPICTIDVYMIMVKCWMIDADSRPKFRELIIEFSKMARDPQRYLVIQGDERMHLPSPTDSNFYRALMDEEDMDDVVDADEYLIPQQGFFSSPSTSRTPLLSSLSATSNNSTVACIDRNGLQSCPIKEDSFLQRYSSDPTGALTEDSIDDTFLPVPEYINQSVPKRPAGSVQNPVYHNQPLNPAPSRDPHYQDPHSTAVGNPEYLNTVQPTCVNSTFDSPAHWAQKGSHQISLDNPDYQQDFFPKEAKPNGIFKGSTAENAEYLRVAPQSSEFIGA
Summary of the method: as §1

EGFR(L858R/T790M) = biological target: T1, EGFR(L858R/T790M) (Homo sapiens, UniProt P00533, L858R/T790M); test: EGFR biochemical assay (HTRF), IC50 determinations
T1 construct: purchased from Carna (GST-a.a. 669-1210)
Summary of the method: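 Two formats were run: compound preincubated at room temperature with enzyme and biotin-TK peptide before ATP starts the reaction, or no preincubation with enzyme added last. Reactions ran 60 min at room temperature and were stopped with EDTA. Phosphopeptide was read by HTRF (PT66K/SAXL, 1 h).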

H3255 (EGFR L858R) = H3255 (EGFR L858R) (Homo sapiens, UniProt P00533, L858R); test: EGFR target modulation in H3255 cell line (phospho-EGFR Y1173 ELISA); assay type: cell-based
Summary of the method: (§2)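 3 h compound exposure of cells in 10% FBS/RPMI, 37 °C; lysis on ice 20 min; lysate captured overnight at 4 °C on anti-EGFR-coated plates; anti-rabbit-HRP, chemiluminescence.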

HEKn (EGFR WT) = HEKn (EGFR WT) (Homo sapiens, UniProt P00533); test: EGFR target modulation in HEKn (EGFR-WT) cell line (phospho-EGFR Y1173 ELISA); assay type: cell-based; details: value outside parentheses
Summary of the method: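 Read-out was Y1173 phosphorylation, measured by chemiluminescent ELISA with anti-EGFR capture of lysates. HEKn keratinocytes (wild-type EGFR) were treated with compound for 3 h.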

[3] = biological target: human EGFR WT (NIH/3T3 cells, EGF-induced) (Homo sapiens, UniProt P00533); test: EGFR target modulation in engineered NIH/3T3 cell lines (phospho-EGFR Y1068 AlphaLISA), EGFR WT; assay type: cell-based; details: engineered NIH/3T3 cells, read-out: NIH3T3 IC50 (μM) EGFR (WT)
Summary of the method: as §1

HCC827 (Del E746-A750) = HCC827 (Del E746-A750) (Homo sapiens, UniProt P00533, DEL746-750); test: EGFR target modulation in HCC827 cell line (phospho-EGFR Y1173 ELISA); assay type: cell-based
HCC827 (Del E746-A750), sequence (P00533 with tags, fused parts or gaps DEL746-750): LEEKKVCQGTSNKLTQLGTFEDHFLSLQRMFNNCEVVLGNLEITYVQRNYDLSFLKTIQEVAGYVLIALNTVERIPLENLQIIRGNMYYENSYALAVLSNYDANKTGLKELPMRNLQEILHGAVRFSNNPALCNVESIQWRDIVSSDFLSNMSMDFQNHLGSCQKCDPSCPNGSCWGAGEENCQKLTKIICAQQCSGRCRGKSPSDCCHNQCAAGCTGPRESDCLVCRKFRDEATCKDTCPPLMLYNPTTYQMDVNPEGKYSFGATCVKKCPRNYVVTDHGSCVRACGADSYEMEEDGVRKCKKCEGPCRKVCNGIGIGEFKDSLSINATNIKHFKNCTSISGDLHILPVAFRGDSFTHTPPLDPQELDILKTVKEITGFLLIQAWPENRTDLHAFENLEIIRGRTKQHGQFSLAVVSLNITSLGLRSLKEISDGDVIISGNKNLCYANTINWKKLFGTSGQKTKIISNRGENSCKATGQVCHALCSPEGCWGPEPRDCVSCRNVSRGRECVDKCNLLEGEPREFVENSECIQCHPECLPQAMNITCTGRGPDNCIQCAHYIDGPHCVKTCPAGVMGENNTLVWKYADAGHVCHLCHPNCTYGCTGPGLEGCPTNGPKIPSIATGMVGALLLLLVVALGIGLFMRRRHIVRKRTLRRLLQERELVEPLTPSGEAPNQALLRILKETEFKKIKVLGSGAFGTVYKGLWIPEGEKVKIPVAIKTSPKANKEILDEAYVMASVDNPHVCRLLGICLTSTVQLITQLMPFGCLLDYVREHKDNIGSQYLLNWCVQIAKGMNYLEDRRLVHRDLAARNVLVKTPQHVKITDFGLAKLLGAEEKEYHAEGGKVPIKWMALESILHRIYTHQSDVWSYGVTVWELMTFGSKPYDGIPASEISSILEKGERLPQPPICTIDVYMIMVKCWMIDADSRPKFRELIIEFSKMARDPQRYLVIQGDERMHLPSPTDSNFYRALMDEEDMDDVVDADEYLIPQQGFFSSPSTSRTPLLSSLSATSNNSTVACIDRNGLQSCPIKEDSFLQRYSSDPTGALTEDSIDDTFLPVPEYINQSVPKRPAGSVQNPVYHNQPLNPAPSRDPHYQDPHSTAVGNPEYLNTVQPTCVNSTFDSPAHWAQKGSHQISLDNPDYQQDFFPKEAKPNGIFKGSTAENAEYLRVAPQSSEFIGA
Experimental: EGFR Target Modulation in H1975, H3255 and HCC827 Cell Lines Tissue Culture. Cells were maintained in 10% FBS/RPMI supplemented with 100 μg/ml Penicillin/Streptomycin (Hyclone #SH30236.01). […] The cells were allowed to incubate overnight in a 37° C., 5% CO2 humidified tissue culture incubator. […] The serial diluted compounds were transferred to the plate containing cells by using a 50 nl Pin Head device (Perkin Elmer) and the cells were placed back in the incubator for 3 hours. Phospho-EGFR ([…]) Target Modulation Assay. The media was reduced to 20 ul using a Bio-Tek ELx 405 SelectTM plate washer. […] The plates were shaken at 4° C. for 20 minutes. An aliquot of 25 ul from each well was transferred to pEGFR(Y1173) ELISA plates for analysis. Phospho-EGFR ([…]) ELISA. Solid white high-binding ELISA plates (Greiner #781074) were coated with 5 ug/ml anti-EGFR capture antibody (R&D Systems #AF231) overnight in 50 mM carbonate/bicarbonate pH 9.5 buffer. Plates were blocked with 1% BSA (Sigma #A7030) in PBS for 1 hour at room temperature. Wash steps were carried out with a Bio-Tek ELx405 SelectTM using 4 cycles of 100 ul TBS-T (20 mM Tris, 137 mM NaCl, 0.05% Tween-20) per well. […] Lysis was allowed to occur for 20 minutes on ice. A 25 ul aliquot was added to each well of the blocked ELISA plate and incubated overnight at 4° C. with gentle shaking. […] After washing, 1:2,000 anti-rabbit-HRP (Cell Signaling #7074) in 0.2% BSA/TBS-T was added and incubated for 1 hour at room temperature. Chemiluminescent detection was carried out with SuperSignal ELISA Pico substrate (ThermoScientific #37069). Signal was read on EnVision plate reader using built-in UltraLUM setting. Data Analysis. Control cells treated with EGF were set to 100% maximum response. […] With these parameters, the IC50's for each compound in each cell line was calculated using non-linear curve fitting analysis.

H1975 (EGFR L858/T790M) = H1975 (EGFR L858/T790M) (Homo sapiens, UniProt P00533, L858R/T790M); test: EGFR target modulation in H1975 cell line (phospho-EGFR Y1173 ELISA); assay type: cell-based
H1975 (EGFR L858/T790M), sequence (P00533 25-1210 T790M/L858R): as the sequence (P00533 25-1210 T790M/L858R) above
Summary of the method: as §2

[4] = EGFR (L858R/T790M) with 90 min pre-incubation, read-out: IC50 (μM) Column B
[5] = EGFR (L858R/T790M) with no pre-incubation, read-out: IC50 (μM) Column A

| SMILES | IC50 [1] | IC50 [2] | IC50 (EGFR(L858R/T790M); [4]) | IC50 (EGFR(L858R/T790M); [5]) | IC50 (H3255 (EGFR L858R)) | IC50 (HEKn (EGFR WT)) | IC50 [3] | IC50 (HCC827 (Del E746-A750)) | IC50 (H1975 (EGFR L858/T790M)) |
| --- | --- | --- | --- | --- | --- | --- | --- | --- | --- |
| C=CC(=O)N1CCCC[C@@H](n2c(NC(=O)c3ccnc(C)c3)nc3cc(CN4CCCC4)cc(C)c32)C1 [Example 17-126] | < 0.001 µM | < 0.001 µM | < 0.001 µM | 0.001 µM | 0.002 µM | 0.065 µM | 0.024 µM | < 0.001 µM | < 0.001 µM |
| Cc1cc(C(=O)Nc2nc3cccc(Cl)c3n2[C@@H]2CCCCN(C(=O)/C=C/CN3CCC(F)(F)C3)C2)ccn1 [Example 3-3] | 0.174 µM | 0.157 µM | 0.011 µM | 0.156 µM | 0.32 µM | 6.4 µM | > 7.6 µM | 0.108 µM | 0.249 µM |
| C=CC(=O)N1CCC[C@@H](n2c(NC(=O)c3cccc(C(F)(F)F)c3)nc3cc(COCC)ccc32)C1 [Example 17-123] | 0.017 µM | 0.174 µM | 0.004 µM | 0.115 µM | 0.199 µM | > 10 µM | > 10 µM | 0.291 µM | 0.022 µM |
| C=CC(=O)N1CCC[C@@H](n2c(NC(=O)c3cccc(C(F)(F)F)c3)nc3cc(CN4CCCC4)ccc32)C1 [Example 17-117] | 0.006 µM | 0.05 µM | 0.004 µM | 0.036 µM | 0.29 µM | > 10 µM | 6.4 µM | 0.243 µM | 0.013 µM |
| Cc1cc(C(=O)Nc2nc3cccc(Cl)c3n2[C@@H]2CCCCN(C(=O)/C=C/CN3CC(F)C3)C2)ccn1 [Example 2, (R,E)-N-(7-chloro-1-(1-(4-(3-fluoroazetidin-1-yl)but-2-enoyl)azepan-3-yl)-1H-benzo[d]imidazol-2-yl)-2-methylisonicotinamide] | 0.011 µM | 0.008 µM | < 0.001 µM | 0.01 µM | 0.015 µM | 0.91 µM | 0.183 µM | < 0.001 µM | 0.01 µM |
| C=CC(=O)N1CCCC[C@@H](n2c(NC(=O)c3cccc(C(F)(F)F)c3)nc3cccc(C(F)(F)F)c32)C1 [Example 17-12] | 0.008 µM | 0.052 µM | 0.003 µM | 0.064 µM | 0.147 µM | > 10 µM | 4.4 µM | 0.03 µM | 0.01 µM |
| C=CC(=O)N1CCCC[C@@H](n2c(NC(=O)c3ccnc(C)c3)nc3cc(CN4CCC(F)(F)C4)cc(C)c32)C1 [Example 17-151] | 0.001 µM | < 0.001 µM | < 0.001 µM | 0.001 µM | 0.001 µM | 0.036 µM | 0.014 µM | < 0.001 µM | < 0.001 µM |
| C=CC(=O)N1CCC[C@@H](n2c(NC(=O)c3cccc(C(F)(F)F)c3)nc3cc(CN(C)C(C)=O)ccc32)C1 [Example 17-119] | 0.008 µM | 0.051 µM | 0.008 µM | 0.062 µM | 0.118 µM | > 6.9 µM | 5 µM | 0.071 µM | 0.01 µM |
| C=CC(=O)N1CCC[C@@H](n2c(NC(=O)c3cccc(C(F)(F)F)c3)nc3cccc(C)c32)C1 [Example 17-106] | 0.007 µM | 0.124 µM | 0.002 µM | 0.038 µM | 0.083 µM | > 10 µM | > 10 µM | 0.153 µM | 0.009 µM |
| C=CC(=O)N1CCC[C@@H](n2c(NC(=O)c3cccc(C(F)(F)F)c3)nc3cc(C)ccc32)C1 [Example 17-105] | 0.012 µM | 0.149 µM | – | – | 0.243 µM | > 10 µM | > 10 µM | 0.207 µM | 0.027 µM |
| CO[C@H]1CCN(C/C=C/C(=O)N2CCCC[C@@H](n3c(NC(=O)c4ccnc(C)c4)nc4cccc(Cl)c43)C2)C1 [Example 3-5] | 0.006 µM | 0.006 µM | < 0.001 µM | 0.007 µM | 0.012 µM | 0.58 µM | 0.259 µM | < 0.001 µM | 0.008 µM |
| C=CC(=O)N1CCCC[C@@H](n2c(NC(=O)c3ccnc(C)c3)nc3cc(CN4CC(F)(F)C4)cc(C)c32)C1 [Example 17-153] | 0.001 µM | 0.001 µM | < 0.001 µM | 0.002 µM | 0.002 µM | 0.061 µM | 0.037 µM | < 0.001 µM | < 0.001 µM |
| C=CC(=O)N1CCCC[C@@H](n2c(NC(=O)c3cc(C)nc(C)c3)nc3cc(CN4CCCC4)cc(C)c32)C1 [Example 17-113] | 0.001 µM | 0.001 µM | < 0.001 µM | 0.003 µM | 0.004 µM | 0.265 µM | 0.081 µM | < 0.001 µM | 0.002 µM |
| COc1cccc2nc(NC(=O)c3ccnc(C)c3)n([C@@H]3CCCCN(C(=O)/C=C/CN(C)C)C3)c12 [Example 17-176] | – | – | < 0.001 µM | 0.018 µM | 0.02 µM | 0.87 µM | – | 0.004 µM | 0.014 µM |
